Laboratory results taken from article PMC11079024, “Identification of a family of species-selective complex I inhibitors as potential anthelmintics” (Nature Communications, 2024).
Like-named read-outs stand apart in the source and are kept apart here.

Assays:
C. briggsae complex I = C. briggsae complex I (Caenorhabditis briggsae, UniProt A8X476+A8XFG2+Q8HEC4); assay: In vitro complex I activity assay, C. briggsae mitochondria; assay type: biochemical; details: for remaining activity at 0.06 µM / remaining activity at 0.13 µM / remaining activity at 0.313 µM / remaining activity at 0.625 µM / remaining activity at 1.5 µM / remaining activity at 3 µM / remaining activity at 15 µM / remaining activity at 37.5 µM / remaining activity at 75 µM / remaining activity at 0.0001 µM / remaining activity at 0.0005 µM / remaining activity at 0.001 µM / remaining activity at 0.0025 µM / remaining activity at 0.005 µM / remaining activity at 0.025 µM / remaining activity at 0.063 µM / remaining activity at 0.125 µM / remaining activity at 0.013 µM: C. briggsae mitochondria, read-out: in vitro complex I activity relative to solvent control; for IC50: purified mitochondria
Experimental: (§1) Mitochondria were isolated from the following free-living nematode strains: C. elegans—N2, CB3474, ECA882, ECA917, ECA1075, ECA1080; C. briggsae—AF16; P. pacificus—PS312; and P. hermaphrodita—B178. With the exception of the P. hermaphrodita strain B178, adult worms of each strain were grown in bulk through liquid culture to obtain mitochondria in sufficient quantities. Due to poor growth in liquid media, mixed stage populations of P. hermaphrodita were washed off and collected from NGM plates seeded with OP50. The isolation of mitochondria from all free-living nematode strains followed the protocol previously outlined in Burns et al.[24]. In brief, a 1 L saturated culture of E. coli HB101 was concentrated 20-fold in 50 mL complete S-medium. ~500,000 L1 worms synchronized from an embryo preparation performed the day prior were added to the S-media/HB101 suspension and grown to adulthood over the course of 3.5 days at 20 °C with shaking at 165 rpm. Following growth, worms were collected in 10 ×15 mL conical tubes and washed 7 times in M9 buffer. Worm suspensions were then combined into a single 15 mL conical tube and diluted to a final volume of 15 mL with M9 buffer. 1 mL aliquots of worm suspension were then distributed to 15 × 1.5 mL screw-cap microcentrifuge tubes and were pelleted at 500 g for 1 min. Excess M9 was aspirated without disturbing the worm pellet. 600 μL ice-cold isolate buffer A (250 mM sucrose, 10 mM Tris (pH 7.5), 1 mM EDTA, 1 mM PMSF (freshly prepared)) and 300 μL cold glass beads were then added to each tube. Tubes were incubated on ice for 10 min, and the worms were then lysed by bead beating (6 x 30 s, with 1 min cooling intervals). Tubes containing worm lysate were centrifuged at 1,000 g for 10 min at 4 °C and the supernatant was transferred to 15 new microcentrifuge tubes on ice. The tubes were centrifuged a second time at 1,000 g for 10 min at 4 °C and the supernatant was once again transferred to 15 new microcentrifuge tubes on ice. These tubes were then centrifuged at 16,000 g for 10 min at 4 °C. The resulting mitochondrial pellet was washed twice by re-suspension in 300 μL of ice-cold isolate buffer B (250 mM sucrose, 10 mM Tris (pH 7.5), 1 mM EDTA). Following the final wash, isolation buffer was aspirated from each tube and the pellets were flash-frozen in ethanol/dry ice and stored at −80 °C until needed.
(§2) The enzymatic activities of individual ETC complexes (I-IV) were assessed spectrophotometrically in isolated mitochondria using a Varioskan LUX Multimode plate reader (ThermoFisher Scientific). Mitochondrial pellets previously isolated were thawed on ice and resuspended in ice-cold isolation buffer (250 mM sucrose, 10 mM Tris (pH 7.5), 1 mM EDTA). The BCA assay (Walker, 1994) was used to quantify the protein concentration of mitochondria suspensions; solutions were diluted to a concentration of 0.2 mg/mL for use in all assays. For the complex I assay, mitochondria pellets were freeze-thawed on ice three times to increase enzyme accessibility. […] 20 μL mitochondria suspension was then added/mixed with a pipette to initiate the reaction. Immediately following the addition of mitochondria, absorbance was measured (complex I and II: 600 nm; complex III and IV: 550 nm) in 30 s intervals over 15 min. Enzymatic activity was determined in each reaction by plotting absorbance versus time and calculating the slope of the curve during the initial linear phase of the reaction. […] Percent activity of each complex was calculated by dividing the enzyme-specific activity of each well by the enzyme-specific activity of the corresponding solvent controls.
Chemical solutions were prepared in complex I assay buffer composed of 25 mM KPi buffer (pH 7.5), 3 mg/mL bovine serum albumin (BSA), 80 μM NADH, 60 μM decylubiquinone, 160 μM DCIP, 2 μM antimycin A and 2 mM KCN.
For preliminary screens of hit compounds, compounds were screened at 100 μM; data are the average of at least three biological replicates.

[1] = test system: P. hermaphrodita complex I; assay: In vitro complex I activity assay, P. hermaphrodita mitochondria; assay type: biochemical, Phasmarhabditis hermaphrodita; details: purified mitochondria
Experimental: as §1, §2
Chemical solutions were prepared in complex I assay buffer composed of 25 mM KPi buffer (pH 7.5), 3 mg/mL bovine serum albumin (BSA), 80 μM NADH, 60 μM decylubiquinone, 160 μM DCIP, 2 μM antimycin A and 2 mM KCN. […]

Sequence of C. briggsae complex I (A8X476 31-482): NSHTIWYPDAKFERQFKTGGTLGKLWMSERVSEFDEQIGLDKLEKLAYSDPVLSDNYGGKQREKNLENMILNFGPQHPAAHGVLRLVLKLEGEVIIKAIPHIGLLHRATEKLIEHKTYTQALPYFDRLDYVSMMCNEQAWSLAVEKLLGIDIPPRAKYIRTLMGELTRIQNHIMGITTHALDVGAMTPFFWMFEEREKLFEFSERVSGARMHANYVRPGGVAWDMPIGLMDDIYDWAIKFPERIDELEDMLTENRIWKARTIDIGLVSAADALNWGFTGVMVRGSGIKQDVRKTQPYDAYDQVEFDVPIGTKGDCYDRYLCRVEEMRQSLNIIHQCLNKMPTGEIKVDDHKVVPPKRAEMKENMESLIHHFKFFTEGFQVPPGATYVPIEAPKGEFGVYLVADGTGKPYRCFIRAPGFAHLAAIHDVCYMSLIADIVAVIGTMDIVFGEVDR
Sequence of C. briggsae complex I (A8XFG2 17-199): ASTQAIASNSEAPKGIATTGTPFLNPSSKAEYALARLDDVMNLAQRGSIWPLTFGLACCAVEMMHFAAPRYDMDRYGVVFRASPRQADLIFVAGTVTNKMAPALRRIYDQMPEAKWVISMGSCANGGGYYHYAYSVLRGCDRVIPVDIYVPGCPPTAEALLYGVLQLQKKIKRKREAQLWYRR
Sequence of C. briggsae complex I (Q8HEC4 whole entry): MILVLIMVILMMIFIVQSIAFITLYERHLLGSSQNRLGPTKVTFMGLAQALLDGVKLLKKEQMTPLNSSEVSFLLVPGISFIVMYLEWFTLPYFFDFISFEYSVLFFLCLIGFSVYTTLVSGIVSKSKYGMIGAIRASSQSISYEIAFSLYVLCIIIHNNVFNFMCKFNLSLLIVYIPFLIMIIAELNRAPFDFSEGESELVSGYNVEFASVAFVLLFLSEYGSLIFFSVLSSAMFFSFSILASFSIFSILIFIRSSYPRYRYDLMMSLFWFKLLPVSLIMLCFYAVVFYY

| Structure (SMILES) | remaining activity at 0.0001 µM (C. briggsae complex I; Mean) | remaining activity at 0.0001 µM (C. briggsae complex I; single replicate) | remaining activity at 0.0005 µM (C. briggsae complex I; Mean) | remaining activity at 0.0005 µM (C. briggsae complex I; single replicate) | remaining activity at 0.001 µM (C. briggsae complex I; Mean) | remaining activity at 0.001 µM (C. briggsae complex I; single replicate) | remaining activity at 0.0025 µM (C. briggsae complex I; Mean) | remaining activity at 0.0025 µM (C. briggsae complex I; single replicate) | remaining activity at 0.005 µM (C. briggsae complex I; Mean) | remaining activity at 0.025 µM (C. briggsae complex I; Mean) | remaining activity at 0.063 µM (C. briggsae complex I; Mean) | remaining activity at 0.063 µM (C. briggsae complex I; single replicate) | remaining activity at 0.125 µM (C. briggsae complex I; Mean) | remaining activity at 0.313 µM (C. briggsae complex I; Mean) | remaining activity at 0.625 µM (C. briggsae complex I; Mean) | remaining activity at 1.5 µM (C. briggsae complex I; Mean) | remaining activity at 3 µM (C. briggsae complex I; Mean) | remaining activity at 15 µM (C. briggsae complex I; Mean) | remaining activity at 37.5 µM (C. briggsae complex I; Mean) | remaining activity at 75 µM (C. briggsae complex I; Mean) | other results |
| --- | --- | --- | --- | --- | --- | --- | --- | --- | --- | --- | --- | --- | --- | --- | --- | --- | --- | --- | --- | --- | --- |
| CC(C)Cc1ccc(C(C)c2nc3ccccc3n2C)cc1 (stereo not shown) [NPD8790] | 91.5% | 87.3% | 96.4% | 99.9% | 102% | 99.6% | 115% | 108% | 119% | 109% | 103% | 95.7% | 92% | 85.6% | 74.2% | 61.1% | 43.1% | 16% | 11.7% | 9.21% | remaining activity at 0.06 µM (C. briggsae complex I; Mean of replicates): 103%; remaining activity at 0.06 µM (C. briggsae complex I; single replicate): 95.7%; remaining activity at 0.13 µM (C. briggsae complex I; Mean of replicates): 92%; remaining activity at 0.13 µM (C. briggsae complex I; single replicate): 86.2%; remaining activity at 0.313 µM (C. briggsae complex I; Mean of replicates): 85.6%; remaining activity at 0.313 µM (C. briggsae complex I; single replicate): 76.1%; remaining activity at 0.625 µM (C. briggsae complex I; Mean of replicates): 74.2%; remaining activity at 0.625 µM (C. briggsae complex I; single replicate): 81.9%; remaining activity at 1.5 µM (C. briggsae complex I; Mean of replicates): 61.1%; remaining activity at 1.5 µM (C. briggsae complex I; single replicate): 70%; remaining activity at 3 µM (C. briggsae complex I; Mean of replicates): 43.1%; remaining activity at 3 µM (C. briggsae complex I; single replicate): 52.6%; remaining activity at 15 µM (C. briggsae complex I; Mean of replicates): 16%; remaining activity at 37.5 µM (C. briggsae complex I; Mean of replicates): 11.7%; remaining activity at 75 µM (C. briggsae complex I; Mean of replicates): 9.21%; remaining activity at 0.125 µM (C. briggsae complex I; single replicate): 86.2%; IC50 (C. briggsae complex I): 1600 nM; IC50 [1]: 1100 nM |
| Cc1ccccc1OCCCCn1cnc2ccccc21 [Compound 7732524] | 92.8% | 92.9% | 91% | 90.7% | 90.6% | 94.1% | 91.8% | 95.4% | 99.8% | 74.3% | 43.5% | 44.1% | 26.1% | 7.94% | 0.818% | 1.29% | 1.71% | 1.4% | 1.05% | 0.358% | remaining activity at 0.005 µM (C. briggsae complex I; single replicate): 102%; remaining activity at 0.013 µM (C. briggsae complex I; Mean): 86.4%; remaining activity at 0.013 µM (C. briggsae complex I; single replicate): 91.2%; remaining activity at 0.025 µM (C. briggsae complex I; single replicate): 77.1%; IC50 (C. briggsae complex I): 60.3 nM; IC50 [1]: 68.7 nM |
